Experimental findings from patent US20240215579A1, “USE OF ANTI-CLOTTING COMPOUNDS AS RODENTICIDES” (priority 2021, published 2024) are described below.

This test relates to pest rodents. Put plainly: Pest rodent bait compositions in standard chow: mortality. The format is in vivo, rats. From the text: The basic bait composition (standard chow) used consisted of 65% maize, 25% oat flakes, […], 3% refined finely granulated sugar, and 1% fine table salt.
The Pgp inhibitors were used at the following listed concentration.

On to `C[C@@H](c1ncncc1F)[C@](O)(Cn1cncn1)c1ccc(F)cc1F` [voriconazole], for which the “Mortality in words, Pgp inhibitor combined with active clotting inhibitors” value (bait, combination with different active clotting inhibitors) was “high mortality”. For the same compound, the “Efficacy as Pgp inhibitor in the context of the invention” value (compared to other Pgp inhibiting substances) is reported as “highly effective”.
